# Results as given in patent US20090312349A1, “ANTI-INFLAMMATORY MEDICAMENTS” (priority 2004, published 2009).
# Assays:
# [1] = target: T1, phospho p-38 alpha kinase (Homo sapiens, UniProt Q16539); assay: P-38 alpha kinase assay (spectrophotometric, pyruvate kinase/lactate dehydrogenase coupled); format: biochemical; details: Table 5; for IC50: assay not named, read-out: uM
# T1 construct: purchased Panvera
# [2] = target: phosphorylated p-38-alpha kinase (Homo sapiens, UniProt Q16539); assay: P-38 alpha kinase assay P1; format: biochemical; details: Method P1; for IC50: 2 h pre-incubation before ATP
# phosphorylated p-38-alpha kinase, sequence (Q16539 1-360 isoform Q16539-2): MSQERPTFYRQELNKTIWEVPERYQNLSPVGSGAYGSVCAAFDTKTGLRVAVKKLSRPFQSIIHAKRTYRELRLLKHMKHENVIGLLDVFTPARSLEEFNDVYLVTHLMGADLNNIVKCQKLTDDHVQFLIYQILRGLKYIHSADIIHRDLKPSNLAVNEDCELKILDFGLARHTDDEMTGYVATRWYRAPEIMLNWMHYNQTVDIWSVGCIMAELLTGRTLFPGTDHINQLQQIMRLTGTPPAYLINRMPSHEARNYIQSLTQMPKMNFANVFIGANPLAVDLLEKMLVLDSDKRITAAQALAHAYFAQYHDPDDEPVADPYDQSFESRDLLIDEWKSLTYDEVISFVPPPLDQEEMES
# [3] = target: T2, KDR kinase (Homo sapiens, UniProt P35968, DEL940-989/E990V); assay: KDR kinase assay K1; format: biochemical; details: for IC50: Method K1; for inhibition at 10 µM: read-out: Results, % @ concentration μM, Method K1
# T2 sequence (P35968 with tags, fused parts or gaps DEL940-989/E990V): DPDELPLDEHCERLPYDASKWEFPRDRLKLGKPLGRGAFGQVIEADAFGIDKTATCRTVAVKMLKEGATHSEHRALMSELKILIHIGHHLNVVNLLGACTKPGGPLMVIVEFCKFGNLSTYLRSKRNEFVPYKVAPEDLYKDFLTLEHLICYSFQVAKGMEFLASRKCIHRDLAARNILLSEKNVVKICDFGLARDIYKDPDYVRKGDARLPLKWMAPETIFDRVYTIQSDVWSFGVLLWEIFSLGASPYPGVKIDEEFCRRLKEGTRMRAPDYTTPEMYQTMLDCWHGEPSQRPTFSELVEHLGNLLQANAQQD
# Experimental: (§1) IC50 values were calculated from a series of percent inhibition values determined at a range of inhibitor concentrations using software routines as implemented in the GraphPad Prism software package.
# [4] = target: B-Raf(V599E) kinase (Homo sapiens, UniProt P15056, V600E); assay: B-Raf(V599E) kinase assay B1; format: biochemical; details: for IC50: Method B1, construct 1; for inhibition at 1 µM: read-out: Results, % @ concentration μM
# B-Raf(V599E) kinase, sequence (P15056 with tags, fused parts or gaps V600E): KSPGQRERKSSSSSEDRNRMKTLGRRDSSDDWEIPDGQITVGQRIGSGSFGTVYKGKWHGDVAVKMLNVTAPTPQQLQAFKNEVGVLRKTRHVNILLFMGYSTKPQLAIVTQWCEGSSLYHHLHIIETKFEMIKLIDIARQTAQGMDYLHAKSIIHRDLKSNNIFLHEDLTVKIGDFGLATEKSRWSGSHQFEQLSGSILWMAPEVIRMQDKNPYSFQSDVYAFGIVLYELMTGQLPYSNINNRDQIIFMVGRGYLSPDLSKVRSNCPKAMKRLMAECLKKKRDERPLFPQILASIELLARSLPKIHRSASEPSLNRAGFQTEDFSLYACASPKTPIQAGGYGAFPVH
# Experimental: The test compounds were incubated with the reaction mixture at 30° C. for 2 h. […] The reaction rate was calculated using the 1.5 h to 2.5 h time frame. […] IC50 values were calculated from a series of percent inhibition values determined at a range of inhibitor concentrations using software routines as implemented in the GraphPad Prism software package.
# [5] = target: T3, Abl kinase (Homo sapiens, UniProt P00519); assay: Abl kinase assay A2; format: biochemical; details: for IC50: Method A2, 2 h pre-incubation, 0.5 mM ATP
# T3 sequence (P00519 229-512): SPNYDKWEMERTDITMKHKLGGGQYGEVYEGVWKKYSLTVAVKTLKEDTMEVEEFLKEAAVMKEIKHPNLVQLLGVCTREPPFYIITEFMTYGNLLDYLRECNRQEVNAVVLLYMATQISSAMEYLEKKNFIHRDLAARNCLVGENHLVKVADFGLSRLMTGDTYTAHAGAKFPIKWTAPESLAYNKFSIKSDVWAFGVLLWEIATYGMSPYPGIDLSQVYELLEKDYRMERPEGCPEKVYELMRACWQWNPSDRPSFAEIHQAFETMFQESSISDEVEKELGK
# Experimental: as §1
# [6] = target: T3, Abl kinase; assay: Abl kinase assay A1; format: biochemical; details: for IC50: Method A1, read-out: Results, μM (IC50); for inhibition at 10 µM: read-out: Results, % @ concentration μM, Method A1
# Experimental: as §1
# [7] = target: T2, KDR kinase; assay: KDR kinase assay K2; details: for inhibition at 1 µM: read-out: Results, % @ concentration μM
# T1 sequence (Q16539 whole entry): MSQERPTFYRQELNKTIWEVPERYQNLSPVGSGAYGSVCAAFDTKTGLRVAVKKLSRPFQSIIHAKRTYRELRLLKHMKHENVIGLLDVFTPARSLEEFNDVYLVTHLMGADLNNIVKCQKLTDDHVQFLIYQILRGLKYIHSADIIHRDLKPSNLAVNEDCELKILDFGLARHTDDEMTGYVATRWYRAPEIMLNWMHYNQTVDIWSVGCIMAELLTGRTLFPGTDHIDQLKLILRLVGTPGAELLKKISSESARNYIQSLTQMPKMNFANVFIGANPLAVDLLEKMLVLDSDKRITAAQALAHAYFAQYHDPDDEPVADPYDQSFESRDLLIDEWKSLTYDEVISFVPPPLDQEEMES
SMILES,IC50 [1],IC50 [2],IC50 [3],IC50 [4],IC50 [5],other results
"CNC(=O)c1cc(Oc2ccc(NC(=O)Nc3cc(C(C)(C)C)nn3-c3cccc(CC(N)=O)c3)cc2)ccn1 [Example 506, 1-(1-(3-(2-amino-2-oxoethyl)phenyl)-3-tert-butyl-1H-pyrazol-5-yl)-3-(4-(2-(methylcarbamoyl)pyridin-4-yloxy)phenyl)urea]",0.042 µM,0.009 µM,0.021 µM,0.02 µM,0.0066 µM,
"NC(=O)Cc1ccc(-n2nc(C3CCCC3)cc2NC(=O)Nc2cccc(Cl)c2Cl)cc1 [Example 467, 1-(1-(4-(2-amino-2-oxoethyl)phenyl)-3-cyclopentyl-1H-pyrazol-5-yl)-3-(2,3-dichlorophenyl)urea]",0.119 µM,0.011 µM,2.9 µM,0.032 µM,,IC50 [6]: 4.8 µM
"NC(=O)Cc1cccc(-c2ccc(C(F)(F)F)cc2NC(=O)Nc2ccc(-c3cccc4c3CNC4=O)cc2)c1 [Example 483, [1,1′-biphenyl]-2′-(3-(4-(1-oxoisoindolin-4-yl)phenyl)ureido)-4′-(trifluoromethyl)-3-acetic acid amide]",0.27 µM,0.027 µM,0.21 µM,0.014 µM,,IC50 [6]: 11.3 µM
"CC(C)(C)c1cc(NC(=O)Nc2ccc(F)cc2F)n(-c2ccc(CC(N)=O)cc2)n1 [Example 498, 1-(1-(4-(2-amino-2-oxoethyl)phenyl)-3-tert-butyl-1H-pyrazol-5-yl)-3-(2,4-difluorophenyl)urea]",,0.041 µM,,0.074 µM,,"% @ concentration, uM ([1]; @ 1 uM): 25% @1; inhibition at 10 µM [3]: 60%; inhibition at 10 µM [6]: 48%"
"CC(C)(C)c1cc(NC(=O)Nc2ccc(F)c(F)c2F)n(-c2cccc(CC(N)=O)c2)n1 [Example 491, 1-(1-(3-(2-amino-2-oxoethyl)phenyl)-3-tert-butyl-1H-pyrazol-5-yl)-3-(2,3,4-trifluorophenyl)urea]",,0.013 µM,,0.007 µM,,"inhibition at 10 µM [3]: 77%; inhibition at 10 µM ([5]; read-out: Results, % @ concentration μM): 78%"
"CC(Cc1cccc(-n2nc(-c3ccccc3F)cc2NC(=O)Nc2cccc(Cl)c2Cl)c1)C(N)=O (centres unmarked) [Example 489, 1-(1-(3-(3-amino-2-methyl-3-oxopropyl)phenyl)-3-(2-fluorophenyl)-1H-pyrazol-5-yl)-3-(2,3-dichlorophenyl)urea]",0.52 µM,,,,,inhibition at 1 µM [7]: 25%
"O=C(O)Cc1cccc(-n2nc(C3CCCC3)cc2NC(=O)Nc2cccc(Cl)c2Cl)c1 [Example 434, 2-(3-(3-cyclopentyl-5-(3-(2,3-dichlorophenyl)ureido)-1H-pyrazol-1-yl)phenyl)acetic acid]",1.9 µM,0.004 µM,2.9 µM,0.006 µM,,IC50 [6]: 3.9 µM
"CC(C)(C)c1cc(NC(=O)Nc2ccc(F)c(F)c2F)n(-c2ccc(CC(=O)O)cc2)n1 [Example 492, 2-(4-(3-tert-butyl-5-(3-(2,3,4-trifluorophenyl)ureido)-1H-pyrazol-1-yl)phenyl)acetic acid]",0.04 µM,0.008 µM,,0.028 µM,,inhibition at 10 µM [3]: 50%; inhibition at 10 µM [6]: 49%
"Cn1c(=O)c(-c2cccc(NC(=O)Nc3cc(C4CCCC4)nn3-c3cccc(CC(N)=O)c3)c2)cc2cncnc21 [Example 514, 1-(1-(3-(2-amino-2-oxoethyl)phenyl)-3-cyclopentyl-1H-pyrazol-5-yl)-3-(3-(8-methyl-7-oxo-7,8-dihydropyrido[2,3-d]pyrimidin-6-yl)phenyl)urea]",0.57 µM,0.011 µM,,,0.077 µM,IC50 [7]: 33 nM
"NC(=O)Cc1cccc(-n2nc(-c3cccs3)cc2NC(=O)Nc2cccc(Oc3cccnc3)c2)c1 [Example 502, 1-(1-(3-(2-amino-2-oxoethyl)phenyl)-3-(thiophen-2-yl)-1H-pyrazol-5-yl)-3-(3-(pyridin-3-yloxy)phenyl)urea]",,,,,,IC50 [6]: 3.1 µM; IC50 [7]: 1300 nM
"NC(=O)Cc1cccc(-n2nc(C(F)(F)F)cc2NC(=O)Nc2cccc(Oc3cccnc3)c2)c1 [Example 503, 1-(1-(3-(2-amino-2-oxoethyl)phenyl)-3-(trifluoromethyl)-1H-pyrazol-5-yl)-3-(3-(pyridin-3-yloxy)phenyl)urea]",,,,0.13 µM,0.29 µM,IC50 [7]: 190 nM
"CC(C)(C)c1cc(NC(=O)Nc2ccc(-c3cccc4c3CNC4=O)cc2)n(-c2cccc(CC(N)=O)c2)n1 [Example 510, 1-(1-(3-(2-amino-2-oxoethyl)phenyl)-3-tert-butyl-1H-pyrazol-5-yl)-3-(4-(1-oxoisoindolin-4-yl)phenyl)urea]",0.47 µM,0.12 µM,0.007 µM,0.21 µM,0.062 µM,
"O=C(Cc1cccc(-n2nc(C3CCCC3)cc2NC(=O)Nc2cccc(Cl)c2Cl)c1)NCC(O)CO (centres unmarked) [Example 487, 1-(3-cyclopentyl-1-(3-(2-(2,3-dihydroxypropylamino)-2-oxoethyl)phenyl)-1H-pyrazol-5-yl)-3-(2,3-dichlorophenyl)urea]",0.038 µM,0.006 µM,,,,inhibition at 1 µM [7]: 20%
"NC(=O)Cc1ccc(-n2nc(-c3ccccc3F)cc2NC(=O)Nc2cccc(Cl)c2Cl)cc1 [Example 466, 1-(1-(4-(2-amino-2-oxoethyl)phenyl)-3-(2-fluorophenyl)-1H-pyrazol-5-yl)-3-(2,3-dichlorophenyl)urea]",0.007 µM,0.038 µM,,,,inhibition at 10 µM [3]: 50%; inhibition at 1 µM [4]: 24%; IC50 [6]: 1.2 µM
"O=C(Nc1cccc(Cl)c1Cl)Nc1cc(-c2cccs2)nn1-c1cccc(CC(=O)N2CC[C@H](O)C2)c1 [Example 463, 1-(2,3-dichlorophenyl)-3-(1-(3-(2-((S)-3-hydroxypyrrolidin-1-yl)-2-oxoethyl)phenyl)-3-(thiophen-2-yl)-1H-pyrazol-5-yl)urea]",0.056 µM,0.025 µM,,,,inhibition at 10 µM [3]: 47%; inhibition at 1 µM [4]: 23%; inhibition at 10 µM [6]: 44%
"CC(C)(C)c1cc(NC(=O)Nc2ccc(F)cc2F)n(-c2cccc(C#N)c2)n1 [Example 499, 1-(3-tert-butyl-1-(3-cyanophenyl)-1H-pyrazol-5-yl)-3-(2,4-difluorophenyl)urea]",,0.046 µM,0.4 µM,0.026 µM,,"% @ concentration, uM ([1]; @ 0.1 uM): 78%; % @ concentration, uM ([1]; @ 1 uM): 95%; inhibition at 10 µM [6]: 88%"
"NC(=O)Cc1cccc(-n2nc(C3CCCC3)cc2NC(=O)Nc2ccc(-c3cccc4c3CNC4=O)cc2)c1 [Example 512, 1-(1-(3-(2-amino-2-oxoethyl)phenyl)-3-cyclopentyl-1H-pyrazol-5-yl)-3-(4-(1-oxoisoindolin-4-yl)phenyl)urea]",0.032 µM,,,,0.11 µM,"Results, % @ concentration μM ([2]; @ 1.0 μM): 82% @1.0; IC50 [7]: 29 nM"
"CC(C)(C)c1cc(NC(=O)Nc2cc(F)c(F)cc2F)n(-c2cccc(CC(N)=O)c2)n1 [Example 494, 1-(1-(3-(2-amino-2-oxoethyl)phenyl)-3-tert-butyl-1H-pyrazol-5-yl)-3-(2,4,5-trifluorophenyl)urea]",0.67 µM,0.068 µM,,0.007 µM,,inhibition at 10 µM [3]: 82%; inhibition at 10 µM [6]: 96%
"Cc1ccc(NC(=O)Nc2cc(C(C)(C)C)nn2-c2cccc(CC(N)=O)c2)cc1Nc1nccc(-c2cccnc2)n1 [Example 516, 1-(1-(3-(2-amino-2-oxoethyl)phenyl)-3-tert-butyl-1H-pyrazol-5-yl)-3-(4-methyl-3-(4-(pyridin-3-yl)pyrimidin-2-ylamino)phenyl)urea]",0.45 µM,,,0.022 µM,0.0018 µM,
"Cn1c(=O)c(-c2cccc(NC(=O)Nc3cc(C(C)(C)C)nn3-c3cccc(CC(N)=O)c3)c2)cc2cncnc21 [Example 513, 1-(1-(3-(2-amino-2-oxoethyl)phenyl)-3-tert-butyl-1H-pyrazol-5-yl)-3-(3-(8-methyl-7-oxo-7,8-dihydropyrido[2,3-d]pyrimidin-6-yl)phenyl)urea]",0.41 µM,0.012 µM,,0.008 µM,0.023 µM,
"NC(=O)Cc1cccc(-n2nc(C3CCCC3)cc2NC(=O)Nc2cccc(Cl)c2Cl)c1 [Example 446, 1-(1-(3-(2-amino-2-oxoethyl)phenyl)-3-cyclopentyl-1H-pyrazol-5-yl)-3-(2,3-dichlorophenyl)urea]",,0.005 µM,1.5 µM,0.016 µM,4.8 µM,
